Experimental data taken from patent US11926618B2, “Halogen-substituted phenylate compound and applications thereof” (HINOVA PHARMACEUTICALS INC., priority 2019, dated 2024).
Read-outs that look alike come from different tables or passages of the source.

Legend:
THR-β = target: T1, THR-β (Homo sapiens, UniProt P10828); assay: Agonistic activity on THR-β (TRβ-LBD/RXRα, biotin-SRC2-2 recruitment, fluorescence ratio 665 nm/615 nm); type: biochemical; conditions: for Selectivity THR-β/THR-α: THR-α EC50 ÷ THR-β EC50; for Agonistic activity for THR-β compared to control compound MGL-3196: in words, versus MGL-3196
T1 construct: A mixed solution of 4× TRα-LBD or TRβ-LBD and 4× RXRα was prepared
Method: (§1) 100× solutions of reference compounds or compounds were prepared with DMSO and then diluted in a 1:3 equal ratio. The gradient dilution of 100× reference compound or compound was further diluted to 4× with 1× reaction buffer and then added to the test plate. A mixed solution of 4× TRα-LBD or TRβ-LBD and 4× RXRα was prepared with 1× reaction buffer and added to the test plate. […] The plate was centrifuged at 1000 rpm for 1 min and then incubated at room temperature and in the dark for 4 h.

THR-α = target: T2, THR-α (Homo sapiens, UniProt P10827); assay: Agonistic activity on THR-α (TRα-LBD/RXRα, biotin-SRC2-2 recruitment, fluorescence ratio 665 nm/615 nm); type: biochemical; conditions: for Agonistic activity for THR-α compared to control compound MGL-3196: in words, versus MGL-3196
T2 construct: A mixed solution of 4× TRα-LBD or TRβ-LBD and 4× RXRα was prepared
Method: as §1

[1] = Pharmacokinetic test in ICR mice, plasma concentration by LC/MS/MS; type: in vivo; conditions: for AUC(0-inf): read-out: Exposure AUCinf
Method: • Polyethylene glycol 400 (PEG400), manufacturer: Chengdu Kelong Chemical Reagent Factory; • Hydroxypropyl 3-cyclodextrin (HP-β-CD), manufacturer: Shanghai Dibai Chemical Technology Co., Ltd.; • HPC LF, manufacturer: Chengdu Yuannuo Tiancheng Technology Co., Ltd.; • Heparin sodium, manufacturer: Chengdu Kelong Chemical Reagent Factory. • Experimental animals: ICR mice (Chengdu Dossy Experimental Animals CO., LTD.) 2) Experimental Method
Preparation of Test Compound Solution
IV group: 1.15 mg of test compound was accurately weighed, and then DMA (0.228 ml) was added to dissolve the compound, to which were successively added PEG400 (1.139 ml) and 0.1 M of phosphate buffer (5.012 ml). Finally, 40% HP-B-CD was added to the final volume of 11.39 ml. The solution was thoroughly mixed by ultrasonic vortex. A clear solution at the concentration of 0.1 mg/ml was prepared.
PO group: 5.06 mg of test compound was precisely weighed, and then 2% HPC LF (containing 0.1% Tween-80) was added to the final volume of 20.04 ml. The solution was mixed by ultrasound, to prepare a uniform suspension at the concentration of 0.25 mg/ml.
After fasting overnight (free drinking water), nine adult ICR mice (3 mice for each time point) were administered by injection via tail vein and by gavage, respectively. For IV group, 5 min, 15 min, 0.5 h, 1 h, 2 h, 4 h, 8 h, 12 h and 24 h after administration, 0.1 ml of blood was collected from the submandibular vein, centrifuged at 4° C. for 5 min to separate the plasma, and stored at −20° C. for detection. For PO group, before administration and 0.5 h, 1 h, 2 h, 4 h, 6 h, 8 h, 12 h and 24 h after administration, 0.1 ml of blood was collected from the submandibular vein, and the processing was the same as that of IV group.
Then, the concentration of original drug in plasma was determined by LC/MS/MS. The plasma concentration-time curve was plotted, and the main pharmacokinetic parameters were calculated with WinNonlin 6.3 software (see Table 2).

T2 sequence (P10827 163-410 isoform P10827-2 limits assumed, other chains not shown): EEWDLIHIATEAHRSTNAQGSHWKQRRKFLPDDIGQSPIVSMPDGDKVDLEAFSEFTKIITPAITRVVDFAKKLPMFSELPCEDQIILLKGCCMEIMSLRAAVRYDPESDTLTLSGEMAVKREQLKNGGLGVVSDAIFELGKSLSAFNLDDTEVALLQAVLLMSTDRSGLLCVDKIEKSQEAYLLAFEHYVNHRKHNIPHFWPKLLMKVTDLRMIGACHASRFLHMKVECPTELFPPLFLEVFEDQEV
T2 sequence (P19793 whole entry partner, other chains not shown, the tested form may be a part): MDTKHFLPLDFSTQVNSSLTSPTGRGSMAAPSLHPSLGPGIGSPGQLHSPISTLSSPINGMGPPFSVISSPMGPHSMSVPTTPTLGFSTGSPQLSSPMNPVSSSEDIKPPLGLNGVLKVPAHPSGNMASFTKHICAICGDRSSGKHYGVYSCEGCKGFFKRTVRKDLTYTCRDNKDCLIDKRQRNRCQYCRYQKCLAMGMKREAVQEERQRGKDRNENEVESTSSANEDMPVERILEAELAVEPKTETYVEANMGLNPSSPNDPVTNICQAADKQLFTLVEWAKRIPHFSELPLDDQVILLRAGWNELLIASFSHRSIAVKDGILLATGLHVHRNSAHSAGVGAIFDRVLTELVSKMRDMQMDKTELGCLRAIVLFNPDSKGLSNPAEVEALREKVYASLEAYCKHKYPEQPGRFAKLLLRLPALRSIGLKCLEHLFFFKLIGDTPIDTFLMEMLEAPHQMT
T1 sequence (P10828 217-461 limits assumed, other chains not shown): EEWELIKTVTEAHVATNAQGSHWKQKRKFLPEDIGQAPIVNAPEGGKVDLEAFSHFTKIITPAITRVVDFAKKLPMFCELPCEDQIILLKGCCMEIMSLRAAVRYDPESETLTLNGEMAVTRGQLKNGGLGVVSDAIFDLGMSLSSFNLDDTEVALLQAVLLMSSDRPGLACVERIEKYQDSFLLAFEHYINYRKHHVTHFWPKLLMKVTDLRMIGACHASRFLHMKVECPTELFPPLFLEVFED
T1 sequence (P19793 whole entry partner, other chains not shown, the tested form may be a part): as the sequence (P19793 whole entry partner, other chains not shown, the tested form may be a part) above

Row | SMILES | EC50 (THR-β) [µM] | Selectivity THR-β/THR-α (THR-β) | Agonistic activity for THR-β compared to control compound MGL-3196 (THR-β) | EC50 (THR-α) [µM] | Agonistic activity for THR-α compared to control compound MGL-3196 (THR-α) | AUC(0-inf) ([1]; ICR, mouse, plasma, dosage 5 mg/kg, route not given) [µg·h/mL] | Peak time Tmax ([1]; dosage 5 mg/kg, route not given) [h] | AUC(0-inf) ([1]; ICR, mouse, plasma, dosage 2 mg/kg, route not given) [µg·h/mL] | half-life ([1]; ICR, mouse, plasma, dosage 2 mg/kg, route not given, read-out: Half-life T1/2 (converted)) [h] | Cmax ([1]; ICR, mouse, plasma, dosage 2 mg/kg, route not given, read-out: Peak concentration Cmax) [µg/mL] | Tmax ([1]; ICR, mouse, plasma, dosage 2 mg/kg, route not given, read-out: Peak time Tmax) [h] | Half-life compared to MGL-3196 ([1]; compound at a lower dose, in words)
1 | CC(C)c1cc(Oc2c(Br)cc(-n3nc(C#N)c(=O)[nH]c3=O)cc2Br)n[nH]c1=O [Compound 13, 2-(3,5-Dibromo-4-((5-isopropyl-6-oxo-1,6-dihydropyridazin-3-yl)oxy)phenyl)-3,5-dioxy-2,3,4,5-tetrahydro-1,2,4-triazine-6-nitrile] | 0.03 | 27 | significantly higher agonistic activities | 0.8 | significantly higher agonistic activities | – | – | – | – | – | – | –
2 | CC(C)c1cc(Oc2c(Cl)cc(-n3nc(C#N)c(=O)[nH]c3=O)cc2Cl)n[nH]c1=O [MGL-3196, reference compound] | – | – | – | – | – | 9.36 | 2 | – | – | – | – | –
3 | [2H]c1c(Oc2c(Br)cc(-n3nc(C#N)c(=O)[nH]c3=O)cc2Br)n[nH]c(=O)c1C(C([2H])([2H])[2H])C([2H])([2H])[2H] [Compound 15, 2-(3,5-dibromo-4-((6-oxo-5-(propan-2-yl-1,1,1,3,3,3-d6)-1,6-dihydropyridazin-3-yl-4-d)oxy)phenyl)-3,5-dioxy-2,3,4,5-tetrahydro-1,2,4-triazine-6-nitrile] | 0.019 | 18 | significantly higher agonistic activities | 0.349 | significantly higher agonistic activities | – | – | – | – | – | – | –
4 | CC(C)c1cc(Oc2c(Cl)cc(-n3nc(C#N)c(=O)[nH]c3=O)cc2Br)n[nH]c1=O [Compound 1, 2-(3-bronco-5-chloro-4-((5-isopropyl-6-oxo-1,6-dihydropyridazin-3-yl)oxy)phenyl)-3,5-dioxo-2,3,4,5-tetrahydro-1,2,4-triazine-6-nitrile] | 0.057 | – | significantly higher agonistic activities | 1.02 | significantly higher agonistic activities | – | – | – | – | – | – | –
5 | [2H]C([2H])([2H])C(c1cc(Oc2c(Cl)cc(-n3nc(C#N)c(=O)[nH]c3=O)cc2Br)n[nH]c1=O)C([2H])([2H])[2H] [Compound 2, 2-(3-bromo-5-chloro-4-((5-di(trideuteromethyl)methyl-6-oxo-1,6-dihydropyridazine-3-yl)oxy)phenyl)-3,5-dioxo-2,3,4,5-tetrahydro-1,2,4-triazine-6-nitrile] | 0.052 | – | – | 1.06 | – | – | – | 9.26 | 5.25 | 0.96 | 4 | longer
6 | [2H]C([2H])([2H])C(c1cc(Oc2c(Br)cc(-n3nc(C#N)c(=O)[nH]c3=O)cc2Br)n[nH]c1=O)C([2H])([2H])[2H] [Compound 14] | 0.027 | 12 | significantly higher agonistic activities | 0.326 | significantly higher agonistic activities | – | – | – | – | – | – | –
7 | [2H]c1c(Oc2c(Cl)cc(-n3nc(C#N)c(=O)[nH]c3=O)cc2Br)n[nH]c(=O)c1C(C([2H])([2H])[2H])C([2H])([2H])[2H] [Compound 3, 2-(3-bromo-5-chloro-4-((4-deutero-5-(1,1,1,3,3,3-hexadeuteropropyl-2-yl)-6-oxo-1,6-dihydropyrazin-3-yl)oxy)phenyl)-3,5-dioxy-2,3,4,5-tetrahydro-1,2,4-triazine-6-nitrile] | 0.06 | – | significantly higher agonistic activities | 1.33 | – | – | – | – | – | – | – | –
